Assay results as given in patent US20250340661A1, “ANTI CD40 ANTIBODY, ANTIGEN BINDING FRAGMENT AND MEDICAL USE THEREOF” (Jiangsu Hengrui Pharmaceuticals Co., Ltd., priority 2021, published 2025).

Assays:
[1] = test system: human CD40 transgenic mice; assay: Mouse skin graft rejection model; assay type: in vivo
Description: Male Balb/c mice, 6 weeks old, were purchased from the Laboratory Animal Management Department, Shanghai Institute of Planned Parenthood Research. Housing environment: SPF; certification number: 20180006023393.
On day −2 of the experiment, the mice were intraperitoneally injected with tacrolimus FK506 or CD40 antagonistic antibodies. On day 0 of the experiment, donor Balb/c mice and C57BL6/J mice were anesthetized with 4% chloral hydrate. The tails of the donor mice were removed, and full circles of skin, 1 cm in length, were isolated from the tails. The hair on the acceptor mice's back was removed, and an incision was made along the skin layer. An equal area of skin was removed while preserving the back fat and connective tissue. The donor skin was placed on the acceptor mice's incision site, and the incision was closed with glue. The mice were then placed back in cages to recover.
The mice were dosed according to the administration regimens in Table 17. After 7 days of recovery, the mouse skin survival was observed daily and rejection scores were recorded.

CD40 [2] = biological target: T1, CD40 (Homo sapiens, UniProt P25942); assay: HEK-Blue CD40L reporter gene cell activity of human-rabbit chimeric anti-CD40 antibodies; assay type: cell-based; parameters: host or cells: HEK-Blue CD40L cells; conditions: HEK-Blue CD40L cells, 25 ng/mL CD40L + anti-His antibody
Method: HEK-Blue CD40L cells were purchased from Invivogen (Cat. #hkb-cd40). The cells were stably transfected with the human CD40 gene and the NF-kB-mediated SEAP genome. The activation level of the CD40 signaling pathway can be characterized by detecting the secreted SEAP in the supernatant using QUANTI-Blue, the substrate of SEAP. In this experiment, the in vitro antagonist activity of anti-CD40 antibodies was assessed according to IC50 by detecting the activation of HEK-Blue CD40L cells by CD40L. HEK-Blue CD40L cells were cultured in a DMEM medium containing 10% FBS, 100 μg/mL Zeocin and 30 μg/mL Blasticidin and passaged 2-3 times in a week at a ratio of 1:5 or 1:10. During passaging, the medium was pipetted off, and the cell layer was rinsed with 5 mL of 0.25% pancreatin. Then the pancreatin was pipetted off, the cells were digested in an incubator for 3-5 min, and then a fresh medium was added to resuspend cells. 100 μL of cell suspension was added to a 96-well cell culture plate at a density of […]. The medium was DMEM containing 10% FBS, 100 μg/mL Zeocin and 30 μg/mL Blasticidin. Only 100 μL of sterile water was added to the periphery of the 96-well plate. […] The absorbance at 630 nm was measured with a microplate reader (Thermo MultiSkanFc), and IC50 values were calculated and used to assess the in vitro cell activity of the anti-CD40 antibodies.
Target sequence in this assay (P25942 21-277): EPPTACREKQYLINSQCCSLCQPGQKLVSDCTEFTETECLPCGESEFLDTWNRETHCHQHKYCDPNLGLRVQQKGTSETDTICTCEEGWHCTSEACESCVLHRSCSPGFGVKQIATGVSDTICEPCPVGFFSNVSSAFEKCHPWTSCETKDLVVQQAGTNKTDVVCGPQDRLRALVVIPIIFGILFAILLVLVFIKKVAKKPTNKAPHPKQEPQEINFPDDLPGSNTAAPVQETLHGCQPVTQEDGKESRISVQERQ

CD40 [3] = biological target: T1, CD40; assay: B cell activation assay system (human PBMCs, CD40L stimulation); assay type: cell-based; parameters: endogenous in cells; host or cells: human PBMCs (CD19+ B cells read out); conditions: CD40L-his + anti-His overnight
Method: CD40 is highly expressed in B cells, and CD40L, upon binding to CD40, can induce B cell activation and up-regulate the expression of a series of activation markers. CD40 antagonistic antibodies block the binding of CD40L to CD40, thereby eliminating the immune activation process of B cells.
Human PBMCs were plated at 2E5/well, 50 μL/well into a 96-well cell culture plate (the medium was RPMI-1640, 10% FBS, 1% penicillin-streptomycin). Serially diluted test antibodies were added at 50 μL/well, and the cells were co-incubated at 37° C. in 5% CO2 for 0.5 h. CD40L-his and an anti-His antibody were added to each well for overnight stimulation. The following day, the plate was centrifuged, the supernatant was removed, and the cells were washed twice with FACS buffer and stained at room temperature for 15 min with 100 μL of Fixable viability dye EF780 (Invitrogen, 65086514) diluted at 1:1000. The cells were washed twice and then blocked at room temperature for 10 min with 100 μL of human Fc blocker (BD, 564220) diluted at 1:200. After centrifugation, the cells were incubated at 4° C. for 0.5 h with flow cytometry antibodies (PerCP/Cyanine5.5 anti-human CD19 (Biolegend, 302230), and APC anti-human CD69 (Biolegend, 310910)) diluted at 1:200. After centrifugation, the supernatant was removed, the cells were washed twice with FACS buffer and then resuspended in 200 μL of PBS, and the fluorescence intensity on the cell surface was measured by flow cytometry (BD FACS Celesta).
With reference to the method in Example 10, the inhibitory activity of the anti-CD40 antibodies 2F12-L4H2-AAYTE and 9E6-L4H2-AAYTE, which carry the AAYTE mutation in the Fc, in the B cell activation assay system was measured.
Target sequence in this assay (P25942 21-277): as above

CD40 [4] = biological target: T1, CD40; assay: SPR (Biacore) affinity for human CD40; assay type: binding; parameters: h-CD40-his; Glu21-Arg193; P25942-1; His; purchased Acrobiosystems Inc. CD0-H5228; conditions: Human CD40 as mobile phase, antibody captured
Method: The test antibody was affinity-captured on an anti-human Fc chip, and a series of concentrations of His-tagged human or cynomolgus monkey CD40 antigen were allowed to flow over the chip surface. Reaction signals were detected in real time using a Biacore instrument, and thus binding and dissociation curves were obtained. The buffer used in the experiment was HBS-EP+10× buffer solution (Cat. #BR-1006-69, GE) diluted to 1× (pH 7.4) with D. I. Water. Fitting was performed on the data obtained from the experiment using a (1:1) Binding model to obtain affinity values. 9E6-L4H2 and 2F12-L4H2 have similar binding constants for human CD40 to CFZ533, 9E6-L4H2 has a stronger binding affinity for cynomolgus monkey CD40, and 2F12-L4H2 has a slightly weak binding affinity for cynomolgus monkey CD40.
Target sequence in this assay (P25942 21-193): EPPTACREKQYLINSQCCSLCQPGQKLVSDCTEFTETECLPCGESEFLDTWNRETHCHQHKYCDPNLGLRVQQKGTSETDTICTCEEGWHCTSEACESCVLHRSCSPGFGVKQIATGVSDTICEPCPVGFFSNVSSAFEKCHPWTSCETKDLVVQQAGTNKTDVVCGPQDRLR

CFZ533: anti-CD40 antagonistic antibody (iscalimab), positive control; variable regions from U.S. Pat. No. 8,277,810B [reference compound]
Skin graft score ([1]; 8 days, 3 mpk, scale 3 (no rejection) to 0): 2.7
Skin graft score ([1]; 8 days, 10 mpk, scale 3 to 0): 2.9
Skin graft score ([1]; 10 days, 3 mpk, scale 3 to 0): 2.1
Skin graft score ([1]; 10 days, 10 mpk, scale 3 to 0): 2.1
Skin graft score ([1]; 15 days, 3 mpk, scale 3 to 0): 0
Skin graft score ([1]; 15 days, 10 mpk, scale 3 to 0): 0
Skin graft score ([1]; 20 days, 3 mpk, scale 3 to 0): 0
Skin graft score ([1]; 20 days, 10 mpk, scale 3 to 0): 0
Skin graft survival rate (%) ([1]; Day 15, 3 mpk ip): 0%
Skin graft survival rate (%) ([1]; Day 15, 10 mpk ip): 0%
IC50 (CD40 [2]): 0.272 nM
CD19+CD69+ % Maximum inhibition rate (CD40 [3]): 95%
CD19+CD69+ MFI Maximum inhibition rate (CD40 [3]): 110%
IC50 (CD40 [3]; read-out: CD19+CD69+ % IC50): 0.14 nM
IC50 (CD40 [3]; read-out: CD19+CD69+ MFI IC50): 0.07 nM
Ka (CD40 [4]): 688000 M⁻¹ s⁻¹
